What was measured:
[1] = molecular target: T1, Tyrosine-protein phosphatase non-receptor type 1 (Homo sapiens, UniProt P18031); assay: Inhibition of human recombinant PTP1B assessed as p-nitrophenol production
T1 sequence (P18031 whole entry): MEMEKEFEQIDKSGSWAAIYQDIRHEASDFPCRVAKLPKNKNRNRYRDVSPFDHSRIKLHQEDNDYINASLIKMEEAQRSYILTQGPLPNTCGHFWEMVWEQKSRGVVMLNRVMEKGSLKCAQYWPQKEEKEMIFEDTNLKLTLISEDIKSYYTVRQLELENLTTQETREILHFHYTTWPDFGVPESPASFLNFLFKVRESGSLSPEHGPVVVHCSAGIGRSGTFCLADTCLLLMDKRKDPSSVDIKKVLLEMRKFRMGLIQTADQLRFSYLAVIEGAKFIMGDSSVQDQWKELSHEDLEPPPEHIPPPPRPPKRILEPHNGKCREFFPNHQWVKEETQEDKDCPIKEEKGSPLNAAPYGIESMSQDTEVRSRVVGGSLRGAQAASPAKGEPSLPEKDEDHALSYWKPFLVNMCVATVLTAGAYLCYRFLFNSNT

[2] = test system: MDA-MB-231; assay: Cytotoxicity against human MDA-MB-231 cells by WST-1 assay; type: functional, cell-based
[3] = test system: MCF7; assay: Cytotoxicity against human tamoxifen-resistant MCF7 cells by WST-1 assay; type: functional, cell-based
[4] = test system: MCF7; assay: Cytotoxicity against human adriamycin- resistant MCF7 cells by WST-1 assay; type: functional, cell-based
[5] = test system: MCF7; assay: Cytotoxicity against human MCF7 cells by WST-1 assay; type: functional, cell-based

Row | IC50 [1] [µM] | Structure (SMILES) | IC50 [2] [µM] | IC50 [3] [µM] | IC50 [4] [µM] | IC50 [5] [µM]
1 | 19.5 | CC(C)=CCc1c(O)ccc2c1OC[C@H]1c3ccc(O)cc3O[C@@H]21 | > 30 | > 30 | > 30 | > 30
2 | 4.2 | CC(C)=CCc1c(O)ccc2c1OC[C@H]1c3ccc4c(c3O[C@@H]21)C=CC(C)(C)O4 [ERYBREADIN B] | 7.7 | 6.2 | 5.6 | 11.8
3 | 6.4 | CC(C)=CCc1c(O)ccc2c1OC[C@H]1c3ccc4c(c3O[C@@H]21)OC(C)(C)C=C4 [ERYBREADIN D] | – | 7.8 | 12.7 | –
4 | 20.8 | COc1ccc2c(c1CC=C(C)C)O[C@H]1c3cc(CC=C(C)C)c(O)cc3OC[C@@]21O [ERYSTAGALLIN A] | > 30 | > 30 | > 30 | > 30
5 | 19.3 | COc1ccc2c(c1CC=C(C)C)O[C@H]1c3ccc(O)cc3OC[C@@]21OC [ERYTHRIBYSSIN A] | 28 | 12 | 16.1 | 19.4
6 | > 30 | O=Cc1c(O)ccc2c1O[C@H]1c3ccc(O)cc3OC[C@@H]21 [ERYTHRIBYSSIN B] | > 30 | > 30 | > 30 | > 30
7 | > 30 | COc1cc2c(cc1O)O[C@H]1c3cc(CC=C(C)C)c(O)cc3OC[C@@H]21 [ERYVARIN K] | > 30 | > 30 | > 30 | > 30
8 | 7.6 | CC1(C)C=Cc2cc3c(cc2O1)OC[C@H]1c2ccc(O)cc2O[C@@H]31 [NEORAUTENOL] | > 30 | > 30 | > 30 | > 30
9 | > 30 | CC(C)=CCc1c(O)ccc2c1O[C@H]1c3ccc(O)cc3OC[C@@H]21 [PHASEOLLIDIN] | > 30 | > 30 | > 30 | > 30
10 | > 30 | CC(C)=CCc1cc2c(cc1O)O[C@H]1c3ccc(O)cc3OC[C@@H]21 [SOPHORAPTEROCARPAN A] | > 30 | > 30 | > 30 | > 30

The next lines start with the molecule.

Row | Structure (SMILES) | IC50 [1] [µM] | IC50 [2] [µM] | IC50 [3] [µM] | IC50 [4] [µM] | IC50 [5] [µM]
11 | CCCCCCCCCCCCCCCC(=O)C1=C(O)[C@@H](CO)OC1=O | – | > 30 | > 30 | > 30 | > 30
12 | CC(C)=CCc1cc2c(cc1O)OC[C@H]1c3ccc(O)c(CC=C(C)C)c3O[C@@H]21 [ERYBRAEDIN C] | > 30 | > 30 | > 30 | > 30 | > 30
13 | CC(C)=CCc1cc2c(cc1O)O[C@H]1c3ccc(O)c(CC=C(C)C)c3OC[C@@H]21 [ERYBREADIN C] | 7.3 | 22.7 | 9.1 | 20.1 | 14.8
14 | CC(C)=CCc1cc2c(cc1O)OC[C@@]1(O)c3ccc4c(c3O[C@@H]21)C=CC(C)(C)O4 [ERYSUBIN E] | 8.8 | > 30 | > 30 | > 30 | > 30
15 | COc1cc2c(cc1O)O[C@H]1c3cc(CC=C(C)C)c(OC)cc3OC[C@@H]21 [ERYTHRIBYSSIN C] | > 30 | > 30 | > 30 | > 30 | > 30
16 | CC(C)=CCc1cc2c(cc1O)OC[C@H]1c3ccc4c(c3O[C@@H]21)C=CC(C)(C)O4 [FOLITENOL] | 7.8 | 16.7 | 18.8 | 10.8 | –
17 | CC/C(=C(\c1ccccc1)c1ccc(OCCN(C)C)cc1)c1ccccc1 [TAMOXIFEN] | – | – | – | – | 11.4
18 | C[C@H]1[C@H](C)CC[C@]2(C(=O)O)CC[C@]3(C)C(=CC[C@@H]4[C@@]5(C)CC[C@H](O)C(C)(C)[C@@H]5CC[C@]43C)[C@H]12 [URSOLIC ACID] | – | > 30 | > 30 | > 30 | > 30

— ChEMBL document CHEMBL1154360, “Cytotoxic and PTP1B inhibitory activities from Erythrina abyssinica” (Bioorg Med Chem Lett, 2009)
